Read-outs that look alike come from different tables or passages of the source.
Legend:
HTT mRNA [1] = assay: Splicing RT-qPCR gene panel, HTT canonical junction (CJ) mRNA; type: cell-based, human; conditions: Homo sapiens, Tables 4A/4B, read-out: HTT (IC50, decrease in CJ mRNA, gene panel)
Outline: (§1)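 A673 or K562 cells were treated 24 h at 37 °C with an 11-point 3-fold dilution series (top 10 uM, ≤0.25% DMSO). Canonical-junction mRNA was measured in lysates by one-step RT-qPCR, normalized to GAPDH, GUSB or PPIA and DMSO control (2^(−ΔΔCt)), expressed as percentage response.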

SMN2 mRNA = assay: Splicing RT-qPCR gene panel, SMN2 canonical junction (CJ) mRNA; type: cell-based, human; conditions: Homo sapiens, Tables 4A/4B, read-out: SMN2 (IC50, decrease in CJ mRNA, gene panel)
Outline: as §1

HTT mRNA [2] = assay: Splicing RT-qPCR assay, HTT canonical (CJ) and alternative (AJ) junction mRNA; type: cell-based, human; conditions: Homo sapiens
Outline: (§2)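 Compound-induced exon inclusion is tracked as an increase in AJ transcript alongside the CJ transcript. Cells (A673 normalized to PPIA; K562 to GAPDH or GUSB) are dosed 24 h with a serial dilution topping at 10 uM, ≤0.25% DMSO, then lysed and analysed by RT-qPCR in at least duplicate.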

Target C mRNA = assay: Splicing RT-qPCR gene panel, Target C canonical junction (CJ) mRNA; type: cell-based, human; conditions: Homo sapiens, Tables 4A/4B, read-out: Target C (IC50, decrease in CJ mRNA, gene panel)
Outline: as §1

MYB mRNA = assay: Splicing RT-qPCR assay, MYB canonical (CJ) and alternative (AJ) junction mRNA; type: cell-based, human; conditions: Homo sapiens
Outline: as §2

K562 cells = assay: Cell Titer Glo 2.0 cell viability assay, K562; type: cell-based; conditions: Homo sapiens, 72 hours incubation
[3] = Tables 4A/4B, canonical junction qPCR panel, read-out: MYB (IC50, decrease in CJ mRNA, gene panel)
[4] = Table 3B, alternative junction mRNA, read-out: HTT AJ (AC50, increase in AJ mRNA)
[5] = Table 3B, canonical junction mRNA, read-out: HTT CJ (IC50, decrease in CJ mRNA)
[6] = Table 3B, canonical junction mRNA, RT-qPCR, read-out: MYB CJ (IC50, decrease in CJ mRNA)
[7] = Table 3B, alternative junction mRNA, RT-qPCR, read-out: MYB AJ (AC50, increase in AJ mRNA)

SMILES | IC50 (HTT mRNA [1]) | IC50 (SMN2 mRNA) | IC50 (HTT mRNA [2]; 24 h, A673 or K562 cells, 24 hours compound treatment, read-out: HTT CJ (IC50, decrease in canonical junction mRNA)) | AC50 (HTT mRNA [2]; A673 or K562 cells, 24 hours compound treatment, read-out: HTT AJ (AC50, increase in alternative junction mRNA)) | IC50 (Target C mRNA) | AC50 (MYB mRNA; 24 h, A673 or K562 cells, 24 hours compound treatment, RT-qPCR, read-out: MYB AJ (AC50, increase in alternative junction mRNA)) | IC50 (MYB mRNA; 24 h, A673 or K562 cells, 24 hours compound treatment, RT-qPCR, read-out: MYB CJ (IC50, decrease in canonical junction mRNA)) | IC50 (MYB mRNA; [3]) | GI50 (K562 cells) | AC50 (HTT mRNA [2]; [4]) | IC50 (HTT mRNA [2]; [5]) | IC50 (MYB mRNA; [6]) | AC50 (MYB mRNA; [7])
Cc1cn2cc(NC(=O)c3ccc(N(C)C4CCN(C)CC4)c4cc(C)oc34)cc(F)c2n1 [Compound 200] | 1000 to 10000 nM | < 100 nM | 1000 to 10000 nM | 1000 to 10000 nM | 1000 to 10000 nM | 1000 to 10000 nM | 1000 to 10000 nM | 1000 to 10000 nM | 1000 to 10000 nM | – | – | – | –
CCc1nc2c(C(=O)Nc3cc(F)c4nc(C)cn4c3)ccc(N3CCNCC3)c2s1 [Compound 945] | 1000 to 10000 nM | < 100 nM | – | – | 1000 to 10000 nM | – | – | < 100 nM | – | 1000 to 10000 nM | 1000 to 10000 nM | < 100 nM | < 100 nM
Cc1cn2cc(NC(=O)c3ccc(N4CCNCC4)c4nc(C)nn34)cc(F)c2n1 [Compound 946] | < 100 nM | < 100 nM | – | – | 100 to 1000 nM | – | – | < 100 nM | – | 100 to 1000 nM | < 100 nM | < 100 nM | < 100 nM
COc1c(NC(=O)c2ccc(N3CCNCC3)c3nc(C)nn23)cn2cc(C)nc2c1F [Compound 949] | < 100 nM | < 100 nM | – | – | < 100 nM | – | – | < 100 nM | – | < 100 nM | < 100 nM | < 100 nM | < 100 nM
CCn1cc2c(N3CCNCC3)ncc(C(=O)Nc3cc(F)c4nc(C)cn4c3)c2n1 [Compound 950] | 100 to 1000 nM | < 100 nM | – | – | > 10000 nM | – | – | < 100 nM | – | 100 to 1000 nM | 100 to 1000 nM | < 100 nM | 100 to 1000 nM
CCn1cc2c(N3C[C@@H](C)N[C@@H](C)C3)ncc(C(=O)Nc3cc(F)c4nc(C)cn4c3)c2n1 [Compound 952] | 100 to 1000 nM | < 100 nM | – | – | 100 to 1000 nM | – | – | 100 to 1000 nM | – | 100 to 1000 nM | 100 to 1000 nM | 100 to 1000 nM | 100 to 1000 nM
CCn1cc2c(N3CCC(NC)C3)ncc(C(=O)Nc3cc(F)c4nc(C)cn4c3)c2n1 (stereo not drawn) [Compound 953] | 1000 to 10000 nM | < 100 nM | – | – | 1000 to 10000 nM | – | – | 100 to 1000 nM | – | 1000 to 10000 nM | 1000 to 10000 nM | 100 to 1000 nM | 100 to 1000 nM
CCn1cc2c(N3CCN(C)CC3)ncc(C(=O)Nc3cc(F)c4nc(C)cn4c3)c2n1 [Compound 954] | 1000 to 10000 nM | < 100 nM | – | – | 1000 to 10000 nM | – | – | 100 to 1000 nM | – | 1000 to 10000 nM | 1000 to 10000 nM | 100 to 1000 nM | 100 to 1000 nM
Cc1cn2cc(NC(=O)c3ccc(N4CCNCC4)c4cc(CO)nn34)cc(F)c2n1 [Compound 955] | 100 to 1000 nM | < 100 nM | – | – | > 10000 nM | – | – | < 100 nM | – | 1000 to 10000 nM | 100 to 1000 nM | < 100 nM | < 100 nM
CCNC1CCN(c2ccc(C(=O)Nc3cc(F)c4nc(C)cn4c3)n3nc(CO)cc23)C1 (stereo not drawn) [Compound 956] | < 100 nM | < 100 nM | – | – | 100 to 1000 nM | – | – | < 100 nM | – | 100 to 1000 nM | < 100 nM | < 100 nM | < 100 nM
Cc1cn2cc(NC(=O)c3ccc(N4CC[C@@H](NC5CC5)C4)c4nc(C)nn34)cc(F)c2n1 [Compound 958] | 100 to 1000 nM | < 100 nM | – | – | > 10000 nM | – | – | < 100 nM | – | 1000 to 10000 nM | 100 to 1000 nM | < 100 nM | < 100 nM
CCNC1CCN(c2ccc(C(=O)Nc3cc(F)c4nc(C)cn4c3)n3nc(CC)cc23)C1 (stereo not drawn) [Compound 959] | 100 to 1000 nM | < 100 nM | – | – | 100 to 1000 nM | – | – | < 100 nM | – | 100 to 1000 nM | 100 to 1000 nM | < 100 nM | < 100 nM
CCc1cc2c(N3CCNCC3)ccc(C(=O)Nc3cc(F)c4nc(C)cn4c3)n2n1 [Compound 960] | 100 to 1000 nM | < 100 nM | – | – | 100 to 1000 nM | – | – | 100 to 1000 nM | – | 100 to 1000 nM | 100 to 1000 nM | 100 to 1000 nM | 100 to 1000 nM
CCNC1CCN(c2ccc(C(=O)Nc3cc(F)c4nc(C)cn4c3)n3nc(C(C)O)cc23)C1 (stereo not drawn) [Compound 961] | 100 to 1000 nM | < 100 nM | – | – | 100 to 1000 nM | – | – | < 100 nM | – | 100 to 1000 nM | 100 to 1000 nM | < 100 nM | < 100 nM
Cc1cn2cc(NC(=O)c3ccc(N4CC[C@@H](NC5CC5)C4)c4cc(C)nn34)cc(F)c2n1 [Compound 963] | 1000 to 10000 nM | < 100 nM | – | – | > 10000 nM | – | – | 100 to 1000 nM | – | 1000 to 10000 nM | 1000 to 10000 nM | 100 to 1000 nM | 100 to 1000 nM
Cc1cn2cc(NC(=O)c3ccc(N4CC[C@@H](NC5CC5)C4)n4cc(C)nc34)cc(F)c2n1 [Compound 965] | < 100 nM | < 100 nM | – | – | 100 to 1000 nM | – | – | < 100 nM | – | < 100 nM | < 100 nM | < 100 nM | < 100 nM
Cc1cn2cc(NC(=O)c3cnc(N4CCC(NC5CC5)C4)c4cn(C)nc34)cc(F)c2n1 (stereo not drawn) [Compound 966] | < 100 nM | < 100 nM | – | – | < 100 nM | – | – | < 100 nM | – | < 100 nM | < 100 nM | < 100 nM | < 100 nM
COc1c(NC(=O)c2ccc(N3CC[C@@H](NC4CC4)C3)c3nc(C)nn23)cn2cc(C)nc2c1F [Compound 968] | 100 to 1000 nM | < 100 nM | – | – | 1000 to 10000 nM | – | – | < 100 nM | – | 1000 to 10000 nM | 100 to 1000 nM | < 100 nM | 100 to 1000 nM
CCn1cc2c(N3CCC(N)(CC)CC3)ncc(C(=O)Nc3cc(F)c4nc(C)cn4c3)c2n1 [Compound 969] | 1000 to 10000 nM | < 100 nM | – | – | 1000 to 10000 nM | – | – | < 100 nM | – | > 10000 nM | 1000 to 10000 nM | < 100 nM | < 100 nM
Cc1cn2cc(NC(=O)c3ccc(N4C[C@@H](C)N[C@@H](C)C4)c4csnc34)cc(F)c2n1 [Compound 971] | 100 to 1000 nM | < 100 nM | – | – | 100 to 1000 nM | – | – | < 100 nM | – | 100 to 1000 nM | 100 to 1000 nM | < 100 nM | < 100 nM
Cc1cn2cc(NC(=O)c3ccc(N4CC[C@@H](NC5CC5)C4)c4csnc34)cc(F)c2n1 [Compound 973] | 1000 to 10000 nM | < 100 nM | – | – | 1000 to 10000 nM | – | – | < 100 nM | – | 1000 to 10000 nM | 1000 to 10000 nM | < 100 nM | < 100 nM
Cc1cn2cc(NC(=O)c3ccc(N4CCC(NC5CC5)CC4)c4csnc34)cc(F)c2n1 [Compound 974] | 100 to 1000 nM | < 100 nM | – | – | 100 to 1000 nM | – | – | < 100 nM | – | 100 to 1000 nM | 100 to 1000 nM | < 100 nM | < 100 nM
Cc1cn2cc(NC(=O)c3c(F)cc(N4CC[C@@H](NC5CCC5)C4)c4csnc34)cc(F)c2n1 [Compound 976] | 100 to 1000 nM | < 100 nM | – | – | 1000 to 10000 nM | – | – | < 100 nM | – | 1000 to 10000 nM | 100 to 1000 nM | < 100 nM | < 100 nM
Cc1cn2cc(NC(=O)c3ccc(N4C[C@@H](C)N[C@@H](C)C4)c4nsnc34)cc(F)c2n1 [Compound 978] | 100 to 1000 nM | < 100 nM | – | – | 1000 to 10000 nM | – | – | < 100 nM | – | 100 to 1000 nM | 100 to 1000 nM | < 100 nM | < 100 nM
Cc1cn2cc(NC(=O)c3ccc(N4CCC(N(C)C)CC4)c4csnc34)cc(F)c2n1 [Compound 979] | 100 to 1000 nM | < 100 nM | – | – | 1000 to 10000 nM | – | – | < 100 nM | – | 100 to 1000 nM | 100 to 1000 nM | < 100 nM | < 100 nM

— patent US20250154169A1, “COMPOUNDS AND METHODS FOR MODULATING SPLICING” (REMIX THERAPEUTICS INC., priority 2021, published 2025)
